Here are results for 89 molecules from a melting point compilation (Tetko et al.; mined from patent text by program, amines drawn as free bases though some values may be those of a salt).

The term melting point denotes the temperature, or range, at which the solid turns liquid. In the case of `CNC(=NO)Nc1ccccc1`, the melting point fell in the range of 95 to 96 °C.
Next, `CCCCC[C@H]1CC[C@H](CCc2ccc(O)cc2)CC1`: 102 °C; `CC(=O)Nc1ccc2c(c1)OCC2`: 115 to 118 °C; `CC(OCCCNC(=O)c1coc(-c2ccc(/C(=C\CCCCC(=O)O)c3cccnc3)cc2)n1)C1CCCCC1` (centres undefined): 80 to 85 °C.
Next, `CN(Cc1ccc2c(Br)c(OCc3nnn[nH]3)ccc2c1)C(=O)c1oc2ccccc2c1CCc1ccccc1`: 56 to 59 °C; `CCc1nnc2c(NC(C)C)nc3ccccc3n12`: 222 to 224 °C; `N[C@H](Cc1ccc2ccccc2c1)C(=O)O`: 242 to 244 °C.
For `Cc1oc2ccc(Nc3ncccc3N)cc2c1C` the value was 168 to 170 °C.
`CCOC(=O)c1ccc(C=C(C)c2ccc3c(c2)SCCC3(C)C)cc1` displayed a melting point of 64 to 65 °C.
For `CCS(=O)(=O)CCON=Cc1nn(-c2c(Cl)cc(C(F)(F)F)cc2Cl)c(N)c1S(C)=O` (centres undefined) the value was 144 to 148 °C; for `CCOc1ccc(CC(CN2CC(=O)OC(=O)C2)N(CCN2CC(=O)OC(=O)C2)CC(=O)O)cc1` (centres undefined), 172 to 174 °C; for `O=C(O)c1ccccc1-c1ccccc1CN1C(=O)c2ccccc2C1=O`, 198 °C.
Next, `Cc1[nH]nc(NC2CCCCC2)c1C(=O)O`: 162 to 163 °C.
Next, `CCc1nc(-n2ccnc2)c2ccccc2c1Cl`: 115 °C.
In turn, `C#Cc1ccc2c(c1)C(c1ccccc1F)=NCc1c(C(=O)NC)ncn1-2` showed a melting point of 235 to 236 °C.
Next, `COc1ncccc1C(=O)NC1CNCCn2c1nc(-c1ccncn1)cc2=O` (racemic): 236 to 238 °C.
As to `CC(=O)c1ccc2c(c1)C1(c3ccccc3-2)c2cc(C(C)=O)ccc2-c2ccc(C(C)=O)cc21`, the melting point is 258 to 260 °C.
`N#CCn1cc(-c2ccccc2)c(=O)c(-c2ccccc2)c1` showed a melting point of 221 to 224 °C.
The molecule `COC(=O)c1cc2c(OC)ccc(OC)c2[nH]1` showed a melting point of 145 to 146 °C.
`COCCn1nc(-c2sc(C(=O)NC(C)C)nc2-c2ccccc2)ccc1=O` displayed a melting point of 172 °C.
In turn, `COC(=O)C1=C(C(OC)OC)NC(C)=C(C(=O)OC(C)C)C1c1ccccc1[N+](=O)[O-]` (centres undefined) showed a melting point of 143 to 145 °C.
For `CCCCCCOc1ccc(-c2ncc(-c3ccc(OCc4ccccc4)c(F)c3F)cn2)cn1`, the melting point stood at 115 °C.
For `CCOC(=O)C1(C(=O)O)CN(C2CC2)c2nc3cc(N4CC(N)C4C)c(F)cc3cc2C1=O` (centres undefined) the value was 170 °C; for `CCC1CN(c2c(F)cc3c(=O)c(C(=O)O)cn(C4CC4F)c3c2OC)CC1(C)N` (centres undefined), 113 to 115 °C.
Next, `CCOC(=O)c1cc([N+](=O)[O-])c(=O)[nH]c1C(=O)OCC`: 144 to 145 °C; `O=Cc1ccc2c(c1F)OC(c1ccccc1)(c1ccccc1)O2`: 92 to 94 °C.
For `Cn1c(C(F)(F)F)cc(=O)n(-c2ccc(Cl)c(C(=O)O)c2)c1=O` the value was 235 to 236 °C; for `COc1cccc(F)c1-c1ccc(NC(=O)OC(C)(C)C)c(N)c1`, 165 to 167 °C.
On to `CC(C)c1nc(C(C)C)c(CN2CCN(c3ccccc3)CC2)c(-c2ccc(F)cc2)c1CO`, for which the melting point is 111 to 113 °C.
`COc1c(CS(=O)(=O)C2=NOC(C)(C)C2)c(C(F)(F)F)nn1C` gave a melting point of 113 to 114 °C.
Regarding `Nc1cc(F)c(Cl)c(Br)c1Cl`, the melting point was in the range of 126 to 130 °C.
For the molecule `Cc1ccc(C)c2c1C[C@@H](O)[C@@H]2Oc1cc(C(=O)N(C)C)cc2c1nc(C)n2C` (relative stereo), the melting point worked out at 134 °C.
In turn, `COc1cc(OC)cc(-c2nc[nH]c2-c2ccc(OC)c(N)c2F)c1` had a melting point of 118 to 120 °C.
`COC(=O)Cn1c(Cc2ccccc2)ccc(NC(=O)CCc2ccccc2)c1=O`: the melting point is 95 to 97 °C.
Next, `NC(=O)c1ccc(-c2nn(Cc3ccccc3)c3ccccc23)o1`: 259 °C; `CCOC(=O)c1cnn2c1nc(Cl)c1cnc3c(cnn3CC)c12`: 170 to 172 °C; `Cc1cccc(-c2nc3ccc(Cl)nn3c2-c2ccnc(NC3CCCCC3)c2)c1`: 191 to 192 °C.
Next, `O=C(Nc1ccc(F)cc1)NS(=O)(=O)C1CCCC1`: 155 to 157 °C.
For `O=C(O)c1oc(-c2ccccc2Cl)cc(=O)c1Br` the value was 205 to 207 °C; for `NC(=O)c1cc(Br)c(O)c(Br)n1`, 261 to 266 °C; for `COC(=O)Cn1nnc(N)n1`, 127 to 128 °C.
Consider `O=[N+]([O-])c1cccc2c1nnn2C1CCCC(Cl)C1Cl` (centres undefined), for which the melting point was 145 to 148 °C.
Next, `CCCCNc1nc(-c2ccc(F)cc2)c(-c2ccc(S(C)(=O)=O)cc2)s1`: 134 to 135 °C; `COn1cc(C(=O)NCc2ccc(Cl)cc2)c(=O)c2ccccc21`: 155 to 160 °C; `O=C(O)COC1(Cl)C=C2ONC(c3ccccc3F)=C2C(Cl)=C1Cl` (centres undefined): 222 to 224 °C.
For `CC(C)n1c(=O)[nH]c2c(C(N)=O)nc(-c3cccc(O)c3)nc21` the value was 338 to 342 °C; for `COc1cc(O)c2c(c1)CC(C(=O)Nc1ccc(CC3SC(=O)NC3=O)cc1)SCC2=O` (centres undefined), 131 to 134 °C.
For `COC(=O)[C@H]1C[C@@H](NC(=O)OC(C)(C)C)c2c(Cl)cc(Cl)cc2N1` (relative stereo) the value was 172 to 173 °C; for `CC1(C)c2c(Cl)cccc2S(=O)(=O)N1CC=O`, 156 °C; for `OC(CCc1ccccc1)(c1ccccc1)c1cncn1Cc1ccccc1` (centres undefined), 196 to 198 °C.
As for `CCOC(=O)C1CCN(c2nc(COc3ccc(C=O)cc3OC)c(C)s2)CC1`, the melting point was in the range of 97 to 98 °C.
Next, `COc1cccc2c(Nc3ccc(C(=O)NC4CCN(Cc5ccccc5)CC4)cc3)c(C(N)=O)cnc12`: 154 to 162 °C; `Cc1cnc2nc(SCc3ccccc3)nn2c1`: 254 to 256 °C.
For `O=C1c2ccccc2COc2cc(Cl)ccc21` the value was 105 to 106 °C; for `Fc1ccc(-c2ccc3[nH]c4c(ccc5cc[nH]c54)c3c2)cc1`, more than 250 °C; for `COc1cc(OC)nc(-n2ncn(N)c2=O)n1`, 238 °C.
`CCCCc1nc2cccc(CC#N)c2n1Cc1ccc(-c2ccccc2C#N)cc1` yielded a melting point of 180 to 181 °C.
Turning to `CCCCc1nn(-c2ccccc2C(F)(F)F)c(=O)n1Cc1ccc(-c2ccccc2S(=O)(=O)NC(=O)[C@H]2CC2(C)C)cc1`, the melting point is 93 to 95 °C.
For `COc1cc(C(O)(C(F)(F)F)C(F)(F)F)cc(Br)c1N(S(C)(=O)=O)S(C)(=O)=O` the value was 193 °C; for `CC(C)=C1OC(=O)N(c2cc(OC3CCCC3)c(Cl)cc2F)C1=N`, 131 to 133 °C; for `COc1nc(C)nc(NC(=O)NS(=O)(=O)c2cccc3c2OC(C)(C)O3)n1`, 160 to 168 °C.
Next, `O=C(O)c1ccccc1S(=O)c1cc(Cl)ccc1C(=O)O` (centres undefined): 279 to 281 °C.
Next, `Cc1ccc(-c2cc(NCc3cccc(CNc4cc(-c5ccc(C)cc5)[nH]n4)n3)n[nH]2)cc1`: 154 °C.
The molecule `O=C(NC1CC1)C(O)=CC(=O)c1ccc(Cc2ccc(F)cc2)o1` gave a melting point of 116 to 117 °C.
For `CCOC(=O)C1=C(C)Nc2nc(N3CCOCC3)nc(N3CCOCC3)c2C1c1cccc2ccccc12` (centres undefined) the value was 198 °C; for `COc1ccc(-c2cc(=O)c3c(O)cc(O)c(-c4cc(-c5cc(=O)c6c(O)cc(O)cc6o5)ccc4OC)c3o2)cc1`, 219 to 222 °C; for `COC(=O)CCc1cc2cc(Cl)c(Cl)cc2[nH]1`, 142 °C.
Next, `CCCCn1c(S)nnc1C(=O)O`: 108 to 110 °C.
For `COCCOCCOCCOc1cc([N+](=O)[O-])c([N+](=O)[O-])cc1OCCOCCOCCOC` the value was 43 to 45 °C.
`COc1cc2c(cc1OC)C1(CCC(=O)NC1=O)CCC2=O` (centres undefined) displayed a melting point of 269 to 271 °C.
For `COCc1oc(-c2nn(Cc3ccccc3F)c3ccccc23)nc1C` the value was 86 to 88 °C; for `CC12CC(F)C3C4CCC(=O)C=C4C=CC3C1CCC2=O` (centres undefined), 198 °C; for `CC(NC(=O)Cc1cc(F)cc(F)c1)C(=O)C1(N)N=C(N2CCCCC2)c2ccccc2N(C)C1=O` (centres undefined), 154 to 160 °C.
Regarding `COC(=O)c1cc([N+](=O)[O-])cn1C`, the melting point lay in the range of 122 to 124 °C.
For `COc1cccc(Cn2c(-c3cc(OC)c(OC)c(OC)c3)nc3ccccc32)c1` the value was 127 °C.
Next, `COc1cc2c(cc1OC)C(C=Cc1ccc(Br)cc1)=NN=C(C)C2`: 156 to 158 °C; `CCC(C(=O)N(C)C)n1ccc(-c2ccccc2)n1` (centres undefined): 101 to 103 °C; `O=c1c(O)c(-c2ccoc2)oc2ccccc12`: 165 to 166 °C.
Next, `O=C1CC2=C(CCN1)c1ccccc1Sc1ccccc12`: 195 to 198 °C.
Take `Nc1ccc(Cl)cc1S`: the melting point was 70 to 72 °C.
For `COC(=O)C(=NO)c1cnsc1` the value was 110 to 112 °C.
Next, `COC(=O)/C=C/c1ccc(CC(C)NCC(O)c2ccccc2F)cc1` (centres undefined): 111 to 116 °C; `Nc1cc(C(=O)c2cccc(C(=O)c3ccc(Cl)c(N)c3)c2)ccc1Cl`: 209 °C; `CC1CCCC(C)N1NC(=O)Nc1cccc2c1C(=O)c1c-2n[nH]c1-c1ccc(N2CCNCC2)cc1` (centres undefined): 270 °C.
For `O=C(c1ccc(Cl)cc1)c1c(CN2CCN(c3ccccc3)CC2)csc1N1C(=O)c2ccccc2C1=O` the value was 220 to 222 °C.
As for `NC(=O)C1CN1Cc1ccccc1` (centres undefined), the melting point lay within 114 to 116 °C.
Regarding `Nc1nc(-c2ccccc2)nc2cccc(Oc3ccccc3)c12`, the melting point was 190 to 191 °C.
Next, `CC(=O)OC1CSC(Oc2cccnc2-c2ccoc2)C(OC(C)=O)C1OC(C)=O` (centres undefined): 185 °C.
For `O=[N+]([O-])c1ccc(NCCO)nc1NCCO` the value was 130 to 131 °C.
